Results published in ChEMBL document CHEMBL1201862, “PubChem BioAssay data set” (2004).
Active and inactive are the calls of the source.

Columns and labels:
[1] = target: Procathepsin L (Homo sapiens, UniProt P07711); experiment: CTSL1 protease inhibition – biochemical, QFRET, 1536-well, counter-screen for M1/M17 aminopeptidase inhibitor project, dose response (AID 2214)
[2] = target: T1, Aspartyl aminopeptidase (Plasmodium falciparum 3D7, UniProt Q8I2J3); experiment: Counterscreen for inhibitors of M1 and M17 aminopeptidases: QFRET-based biochemical high throughput dose response assay for inhibitors of the Plasmodium falciparum M18 Aspartyl Aminopeptidase (PFM18AAP). [Related PubChem assays: 1619 (Screening assay (M17LAP inhibitors).), 1445 (Screening assay (M1AAP inhibitors).)]
T1 sequence (Q8I2J3 whole entry): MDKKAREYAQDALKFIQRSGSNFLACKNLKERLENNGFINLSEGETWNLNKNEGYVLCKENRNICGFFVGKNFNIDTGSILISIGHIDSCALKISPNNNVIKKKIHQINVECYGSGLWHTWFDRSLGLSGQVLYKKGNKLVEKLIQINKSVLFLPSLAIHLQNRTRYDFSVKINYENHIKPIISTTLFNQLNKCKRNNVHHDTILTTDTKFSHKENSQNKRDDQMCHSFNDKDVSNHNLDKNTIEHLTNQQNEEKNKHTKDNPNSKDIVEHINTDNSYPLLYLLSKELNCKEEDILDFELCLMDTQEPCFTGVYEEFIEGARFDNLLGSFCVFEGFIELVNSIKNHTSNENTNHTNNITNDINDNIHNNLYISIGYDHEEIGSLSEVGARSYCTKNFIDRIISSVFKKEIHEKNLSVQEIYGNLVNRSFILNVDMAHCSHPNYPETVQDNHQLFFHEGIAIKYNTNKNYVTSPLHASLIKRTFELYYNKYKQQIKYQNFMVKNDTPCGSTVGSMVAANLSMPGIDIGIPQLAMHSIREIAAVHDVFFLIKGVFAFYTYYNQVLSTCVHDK

[3] = target: T2, Leucine aminopeptidase (Plasmodium falciparum 3D7, UniProt Q8IL11); experiment: P. falciparum M17LAP inhibitors, primary screen, biochemical, fluorogenic H-Leu-NHMec substrate, 1536-well (AID 1619); assay type: functional
T2 sequence (Q8IL11 whole entry): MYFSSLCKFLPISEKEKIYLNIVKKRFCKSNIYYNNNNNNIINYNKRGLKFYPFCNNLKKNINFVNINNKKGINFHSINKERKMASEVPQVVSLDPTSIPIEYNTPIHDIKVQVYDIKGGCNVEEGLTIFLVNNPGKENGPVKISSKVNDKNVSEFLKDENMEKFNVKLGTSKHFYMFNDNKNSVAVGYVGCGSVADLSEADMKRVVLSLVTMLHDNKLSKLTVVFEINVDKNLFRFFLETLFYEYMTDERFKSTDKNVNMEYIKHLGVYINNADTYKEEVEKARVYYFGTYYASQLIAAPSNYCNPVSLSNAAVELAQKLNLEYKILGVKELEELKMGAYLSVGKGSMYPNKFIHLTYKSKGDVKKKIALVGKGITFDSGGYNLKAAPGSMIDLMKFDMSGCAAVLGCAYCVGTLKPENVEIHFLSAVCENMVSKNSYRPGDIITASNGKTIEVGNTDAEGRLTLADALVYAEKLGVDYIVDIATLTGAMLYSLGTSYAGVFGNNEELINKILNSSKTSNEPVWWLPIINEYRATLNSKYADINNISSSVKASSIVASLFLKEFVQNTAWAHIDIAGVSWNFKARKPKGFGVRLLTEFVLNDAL

[4] = target: Heat shock protein HSP 90-alpha (Homo sapiens, UniProt P07900); experiment: Luminescence-based dose response biochemical high throughput screening assay for inhibitors of the Heat Shock Protein 90 (HSP90). [Related pubchem assays: 1831 (Summary AID.), 1846 (Confirmation screen.), 1789 (Primary screen.)]
[5] = target: T3, Caspase-3 (Homo sapiens, UniProt P42574); assay type: functional;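 also: Dose-response selectivity test against caspase-3 for candidate inhibitors of sentrin-specific proteases (SENPs)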
T3 sequence (P42574 whole entry): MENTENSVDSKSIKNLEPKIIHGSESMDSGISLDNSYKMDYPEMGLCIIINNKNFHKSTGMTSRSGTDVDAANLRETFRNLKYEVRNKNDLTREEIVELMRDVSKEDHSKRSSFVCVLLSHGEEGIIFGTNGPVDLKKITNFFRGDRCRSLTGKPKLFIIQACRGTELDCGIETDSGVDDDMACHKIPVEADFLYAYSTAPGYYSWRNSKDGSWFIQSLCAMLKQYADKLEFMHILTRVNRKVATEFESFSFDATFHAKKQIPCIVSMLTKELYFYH

[6] = target: T4, Sentrin-specific protease 7 (Homo sapiens, UniProt Q9BQF6); assay type: functional;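 also: Luminescence-based dose-response confirmation of ultra-high-throughput screening hits, measuring inhibition of SENP7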
T4 sequence (Q9BQF6 whole entry): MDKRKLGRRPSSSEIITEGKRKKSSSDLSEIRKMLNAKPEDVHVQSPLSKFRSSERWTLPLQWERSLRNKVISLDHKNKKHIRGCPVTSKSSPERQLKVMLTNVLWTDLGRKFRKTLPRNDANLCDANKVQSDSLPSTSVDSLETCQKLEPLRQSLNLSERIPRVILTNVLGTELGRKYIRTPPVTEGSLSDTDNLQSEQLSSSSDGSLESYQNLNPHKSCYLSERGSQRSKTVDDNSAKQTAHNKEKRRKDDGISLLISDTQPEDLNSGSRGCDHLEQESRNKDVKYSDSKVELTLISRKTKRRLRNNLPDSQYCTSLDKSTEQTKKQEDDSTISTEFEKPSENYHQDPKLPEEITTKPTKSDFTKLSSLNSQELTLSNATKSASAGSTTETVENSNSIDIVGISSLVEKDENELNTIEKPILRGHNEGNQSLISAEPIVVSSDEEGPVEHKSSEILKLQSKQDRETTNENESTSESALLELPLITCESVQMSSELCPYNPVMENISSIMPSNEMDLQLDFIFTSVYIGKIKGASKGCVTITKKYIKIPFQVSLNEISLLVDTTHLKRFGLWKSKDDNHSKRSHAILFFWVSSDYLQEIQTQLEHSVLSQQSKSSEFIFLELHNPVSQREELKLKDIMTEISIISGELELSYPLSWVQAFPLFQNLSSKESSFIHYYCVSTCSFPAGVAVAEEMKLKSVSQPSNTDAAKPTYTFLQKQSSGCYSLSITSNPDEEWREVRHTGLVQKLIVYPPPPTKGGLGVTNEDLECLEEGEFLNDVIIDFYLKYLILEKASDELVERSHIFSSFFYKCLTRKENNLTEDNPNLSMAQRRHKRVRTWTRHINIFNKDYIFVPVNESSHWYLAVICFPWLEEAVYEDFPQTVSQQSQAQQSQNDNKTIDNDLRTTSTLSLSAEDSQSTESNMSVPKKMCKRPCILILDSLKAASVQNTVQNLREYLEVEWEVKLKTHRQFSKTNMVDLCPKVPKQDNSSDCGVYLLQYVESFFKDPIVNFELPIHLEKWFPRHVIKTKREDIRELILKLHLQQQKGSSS

[7] = target: T5, Sentrin-specific protease 8 (Homo sapiens, UniProt Q96LD8); assay type: functional;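 also: luminescence read-out of SENP8 inhibition, dose-response confirmation following an ultra-high-throughput screen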
T5 sequence (Q96LD8 whole entry): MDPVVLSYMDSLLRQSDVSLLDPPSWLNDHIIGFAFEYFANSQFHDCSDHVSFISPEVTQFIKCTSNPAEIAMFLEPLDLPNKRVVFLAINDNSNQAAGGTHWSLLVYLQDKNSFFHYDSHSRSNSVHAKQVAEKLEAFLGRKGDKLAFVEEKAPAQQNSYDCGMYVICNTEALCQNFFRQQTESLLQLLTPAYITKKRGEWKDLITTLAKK

[8] = target: T6, Sentrin-specific protease 6 (Homo sapiens, UniProt Q9GZR1); assay type: functional;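 also: Luminescence-based dose-response confirmatory assay of SENP6 inhibition, following up an ultra-high-throughput screen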
T6 sequence (Q9GZR1 whole entry): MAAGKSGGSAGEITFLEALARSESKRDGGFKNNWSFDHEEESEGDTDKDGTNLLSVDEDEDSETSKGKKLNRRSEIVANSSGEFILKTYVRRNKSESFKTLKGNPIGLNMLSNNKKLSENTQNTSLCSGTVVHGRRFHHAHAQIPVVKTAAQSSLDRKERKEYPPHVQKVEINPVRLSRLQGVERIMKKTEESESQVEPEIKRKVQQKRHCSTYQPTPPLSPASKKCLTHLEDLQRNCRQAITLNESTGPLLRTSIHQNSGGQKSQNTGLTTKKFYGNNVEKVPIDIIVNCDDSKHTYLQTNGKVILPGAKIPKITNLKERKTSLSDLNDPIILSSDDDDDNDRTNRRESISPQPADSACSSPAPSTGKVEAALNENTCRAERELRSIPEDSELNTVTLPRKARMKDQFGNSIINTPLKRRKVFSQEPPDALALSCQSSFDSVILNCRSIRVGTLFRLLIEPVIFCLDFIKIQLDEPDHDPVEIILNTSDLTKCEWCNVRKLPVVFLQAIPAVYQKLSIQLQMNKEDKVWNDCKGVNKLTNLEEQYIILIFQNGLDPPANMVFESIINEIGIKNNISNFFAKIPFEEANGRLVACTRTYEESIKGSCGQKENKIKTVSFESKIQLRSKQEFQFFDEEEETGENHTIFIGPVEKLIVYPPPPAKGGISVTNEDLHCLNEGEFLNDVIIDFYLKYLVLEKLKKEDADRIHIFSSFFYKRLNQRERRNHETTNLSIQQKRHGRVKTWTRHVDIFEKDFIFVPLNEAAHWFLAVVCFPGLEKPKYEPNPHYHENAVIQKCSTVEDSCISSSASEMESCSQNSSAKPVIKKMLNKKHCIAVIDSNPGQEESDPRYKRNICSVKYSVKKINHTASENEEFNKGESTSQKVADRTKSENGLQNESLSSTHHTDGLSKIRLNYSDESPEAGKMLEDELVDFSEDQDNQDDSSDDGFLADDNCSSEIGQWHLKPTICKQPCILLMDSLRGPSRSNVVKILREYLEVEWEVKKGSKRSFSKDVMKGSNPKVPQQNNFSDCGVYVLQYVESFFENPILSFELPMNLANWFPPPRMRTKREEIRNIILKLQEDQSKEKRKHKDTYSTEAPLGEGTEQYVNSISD

[9] = blockers of bursicon-stimulated LGR2 cAMP reporter – cell-based, HEK293, CRE-luciferase reporter, cherry pick, set 2, dose response (AID 743343); assay type: functional;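 also: transfected cells were stimulated with diluted bursicon conditioned medium after compound addition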
[10] = tested on: HT-1080; experiment: HT1080 cell viability loss – fluorescence readout (AID 620); assay type: functional, cell-based; conditions: Homo sapiens
[11] = microbe, parasite or virus in culture; assay type: functional; conditions: Mycobacterium tuberculosis
[12] = blockade of melanocortin 4 receptor signaling – cell-based, plate reader, cherry pick, counter-screen for LGR2 antagonist project, dose response (AID 743444); assay type: functional;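 also: transfected HEK 293 cells stimulated with alpha-MSH peptide; potency of inhibitors of the alpha-MSH evoked signal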
[13] = target: Luciferin 4-monooxygenase (Photinus pyralis, UniProt P08659); experiment: Counter Screen for Luciferase-based Assay Positives. [Related pubchem assays: 620, 618, 411 ]
Chain of Luciferin 4-monooxygenase (P08659 whole entry): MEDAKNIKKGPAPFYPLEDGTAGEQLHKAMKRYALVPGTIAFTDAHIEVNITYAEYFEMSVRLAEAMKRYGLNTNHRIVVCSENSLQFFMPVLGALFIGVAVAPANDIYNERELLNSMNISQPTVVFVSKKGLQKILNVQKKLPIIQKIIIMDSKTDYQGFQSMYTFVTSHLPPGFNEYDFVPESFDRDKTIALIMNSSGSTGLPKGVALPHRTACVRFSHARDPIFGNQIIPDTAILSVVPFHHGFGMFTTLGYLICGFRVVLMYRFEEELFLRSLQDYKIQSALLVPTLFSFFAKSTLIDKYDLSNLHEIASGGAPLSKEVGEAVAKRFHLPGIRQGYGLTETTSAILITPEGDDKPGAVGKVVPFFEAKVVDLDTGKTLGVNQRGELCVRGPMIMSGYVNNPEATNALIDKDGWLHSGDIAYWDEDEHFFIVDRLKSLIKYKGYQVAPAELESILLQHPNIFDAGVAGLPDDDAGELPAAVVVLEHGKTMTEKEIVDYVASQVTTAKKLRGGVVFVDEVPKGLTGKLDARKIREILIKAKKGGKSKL

[14] = viability loss in HEK293 cells – cell-based, plate reader, cherry-picked samples, cytotoxicity control, dose response (AID 743446); assay type: functional
[15] = toxicity toward HepG2 liver cells – cell-based, plate reader, cherry-pick, antagonist series, cytotoxicity control, dose response (AID 743416); assay type: functional
[16] = target: Glyceraldehyde-3-phosphate dehydrogenase (Homo sapiens, UniProt P04406)
Chain of Glyceraldehyde-3-phosphate dehydrogenase (P04406 whole entry): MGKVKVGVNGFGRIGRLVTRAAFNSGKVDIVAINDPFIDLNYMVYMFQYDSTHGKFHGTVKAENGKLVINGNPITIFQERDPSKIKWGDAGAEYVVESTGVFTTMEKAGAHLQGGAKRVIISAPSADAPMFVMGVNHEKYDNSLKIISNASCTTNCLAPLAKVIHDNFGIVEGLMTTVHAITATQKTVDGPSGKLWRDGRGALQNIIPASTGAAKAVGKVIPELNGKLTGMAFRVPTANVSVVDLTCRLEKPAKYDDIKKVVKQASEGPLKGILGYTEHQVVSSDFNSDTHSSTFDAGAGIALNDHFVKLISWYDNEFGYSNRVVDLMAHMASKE

[17] = target: T7, Heat shock factor protein 1 (Mus musculus, UniProt P38532); experiment: decrease of HSF1-responsive luciferase luminescence – cell-based, NIH3T3, dose retest, confirmation (AID 2382); assay type: functional;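 also: NIH3T3 fibroblasts with HSF1-driven luciferase reporter stressed by proteasome inhibitor MG132; luminescence from HSF1-driven luciferase expression after 8 hours of MG132 stress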
T7 sequence (P38532 whole entry): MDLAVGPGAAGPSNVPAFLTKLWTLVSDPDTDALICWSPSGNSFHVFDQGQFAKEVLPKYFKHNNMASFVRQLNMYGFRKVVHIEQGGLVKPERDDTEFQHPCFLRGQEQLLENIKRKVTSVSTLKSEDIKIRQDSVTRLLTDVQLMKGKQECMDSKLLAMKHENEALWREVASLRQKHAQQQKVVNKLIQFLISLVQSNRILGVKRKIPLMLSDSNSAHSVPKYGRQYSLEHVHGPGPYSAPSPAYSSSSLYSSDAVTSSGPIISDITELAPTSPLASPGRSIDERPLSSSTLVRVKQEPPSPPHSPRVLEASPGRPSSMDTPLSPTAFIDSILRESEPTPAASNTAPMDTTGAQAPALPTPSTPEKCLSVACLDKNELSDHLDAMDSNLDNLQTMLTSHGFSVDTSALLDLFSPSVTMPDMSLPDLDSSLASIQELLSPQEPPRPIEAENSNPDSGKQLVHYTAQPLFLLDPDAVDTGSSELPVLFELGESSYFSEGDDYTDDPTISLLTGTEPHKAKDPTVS

[18] = HEK-293T cell viability reduction – luminescence, B-cell screen hits, cytotoxicity control for BCR NF-kB inhibitor project, dose response (AID 489021); assay type: functional, cell-based;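 also: HEK-293T cells carrying an NF-kB luciferase reporter; cells exposed to compound for about 14 hours before viability readout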
[19] = target: Prothrombin (Homo sapiens, UniProt P00734); experiment: Thrombin 1536 HTS Dose Response Confirmation. [Related pubchem assays: 1046 (Thrombin 1536 HTS; hits were confirmed in this assay)]; assay type: functional

Chain of Procathepsin L (P07711 whole entry): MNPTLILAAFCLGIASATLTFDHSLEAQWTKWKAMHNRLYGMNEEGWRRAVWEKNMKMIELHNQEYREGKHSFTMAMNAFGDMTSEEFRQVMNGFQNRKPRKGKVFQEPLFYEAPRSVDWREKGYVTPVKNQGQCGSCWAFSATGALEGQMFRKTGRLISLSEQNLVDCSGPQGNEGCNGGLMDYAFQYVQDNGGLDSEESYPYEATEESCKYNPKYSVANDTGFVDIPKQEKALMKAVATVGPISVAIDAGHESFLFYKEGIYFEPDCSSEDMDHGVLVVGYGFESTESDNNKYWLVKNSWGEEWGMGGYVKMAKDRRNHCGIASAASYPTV

N#Cc1c(NC(=O)C2CC(Cl)=CCC2C(=O)O)sc2c1CCCC2 (stereo not drawn)
IC50 [1]: > 59.6 µM (not active) | IC50 [2]: > 73.5 µM (not active) | IC50 [3]: < 1 µM (active)

CN1C(=O)S/C(=C/c2ccc(OCc3cccc(C(=O)O)c3)cc2)C1=O
IC50 [4]: > 20 µM (not active) | IC50 [5]: 88.1 µM (active) | IC50 [6]: 6.05 µM (active) | IC50 [7]: 8.88 µM (active) | IC50 [8]: 4.42 µM (active)

CC(C)(C)c1ccc(-c2nc(-c3ccncc3)no2)cc1
AC50 [9]: 12.9 µM (active) | EC50 [10]: > 50 µM (not active) | CC50 [11]: 34.2 µM (active) | AC50 [12]: 20.8 µM (active) | EC50 [13]: 0.57 µM (active) | AC50 [14]: > 52 µM (inactive) | AC50 [15]: 30.1 µM (active)

Cc1cc(C)n(-c2nc3ccccc3nc2N2CCC(C)CC2)n1
EC50 [10]: > 50 µM (not active) | EC50 [13]: 1.01 µM (active)

O=C(O)CCSc1nc2ccccc2s1
EC50 [10]: > 50 µM (not active) | IC50 [16]: > 100 µM (not active) | EC50 [17]: 6.83 µM (active) | EC50 [13]: > 100 µM (not active) | IC50 [18]: > 80 µM (inactive)

O=C(CCC1CCCN(C(=O)C2(c3ccccc3)CC2)C1)N1CCN(c2ccccn2)CC1 (stereo not drawn)
IC50 [19]: > 50 µM (not active)

CCCCN1C(=O)NC(=O)C2(Cc3c(nc4ccccn4c3=O)N3CCc4ccccc4C32)C1=O (stereo not drawn)
IC50 [19]: 5.42 µM (active)

Cc1ccc(Nc2nnc(SCC(=O)NC(Cc3c[nH]c4ccccc34)C(=O)O)s2)cc1 (stereo not drawn)
IC50 [1]: > 59.6 µM (not active) | IC50 [2]: > 73.5 µM (not active) | IC50 [3]: 3.25 µM (active)

CCC(=O)n1nc(-c2cccnc2)nc1NCc1ccccc1
IC50 [19]: 0.0029 µM (active)
